Measured values published in patent publication US20230248665A1, “COMPOSITION COMPRISING DIMETHYLCHALCONE DERIVATIVE FOR PREVENTION OR TREATMENT OF METABOLIC DISEASE” (SEOUL NATIONAL UNIVERSITY R & DB FOUNDATION, priority 2020, published 2023).

Assays:
Format in all cases: cell-based
[1] = system: vascular endothelial cells (HUVECs) and THP-1 (human monocyte) immune cells; assay: Binding of THP-1 immune cells to TNFα-treated vascular endothelial cells (HUVECs); details: 10 µM with 10 ng/mL TNFα, 24 hours, then THP-1 for 1 hour; FIG. 5
Experimental: In the early stages of progression of vascular diseases such as arteriosclerosis, adhesion materials are expressed in vascular endothelial cells due to various environmental factors, thereby increasing the binding of immune cells. Therefore, in order to check whether the DMC derivatives of Example 1 affect the binding between vascular endothelial cells and immune cells, vascular endothelial cells (HUVECs) were treated with 10 ng/mL TNFα and 10 µM DMC derivative and cultured for 24 hours. Then, THP-1 (human monocyte) immune cells labeled with a fluorescent protein were added to the culture solution, and the cells were additionally cultured for 1 hour. After the culture was completed, unbound immune cells were removed using a phosphate buffer solution, and then the degree of binding of immune cells to vascular endothelial cells was determined by measuring the intensity of fluorescence.

[2] = system: human kidney proximal tubule epithelial cell (HK-2) cell line; assay: Antioxidant effect, intracellular reactive oxygen species (DCF-DA) in HK-2 kidney cells after H2O2; details: 1 µM for 18 hours, then 500 µM H2O2 for 6 hours, FIG. 6
Experimental: First, the antioxidant effect was checked using kidney cells. More specifically, a human kidney proximal tubule epithelial cell (HK-2) cell line was treated with 1 µM DMC derivative and cultured for 18 hours. Then, 500 µM H2O2 was added to the culture medium and the culture medium was incubated for 6 hours. Thereafter, the amount of intracellular reactive oxygen species (iROS) was measured using dichlorohydro-fluorescein diacetate (DCF-DA).

[3] = system: rat aortic smooth muscle cells; assay: PDGF-induced migration of vascular smooth muscle cells; details: 1 µM with 10 ng/mL PDGF; FIG. 4
Experimental: Proliferation and migration of vascular smooth muscle cells are known to be essential steps in the progression of vascular diseases such as restenosis and arteriosclerosis. Therefore, in order to confirm the effect of the DMC derivatives of Example 1 on the migration of rat aortic smooth muscle cells, smooth muscle cells were treated with 10 ng/mL platelet-derived growth factor (PDGF) and 1 µM DMC derivative and cultured. Then, the degree of cell migration was measured.

AMPK = AMPK activity, western blotting of phosphorylated AMPK in C2C12 myotubes; details: 10 µM, 24 hours, FIG. 2
Text: AMP-activated protein kinase (AMPK) is a member of serine/threonine kinases, and is an enzyme known as an energy sensor which senses the intracellular energy state. Moreover, the activation of AMPK is known to show the effect of increasing glucose transport and promoting fatty acid oxidation in skeletal muscle, and to […] the synthesis of cholesterol and triglycerides, decrease lipogenesis, and increase fatty acid oxidation, and ketogenesis, and the like in the liver. Further, the activation of AMPK is known to reduce adipogenesis in adipose tissue and increase insulin secretion in pancreatic beta cells, thereby being able to be applied to the treatment of various metabolic diseases. Therefore, western blotting was performed in order to confirm the effect of the DMC derivatives of Example 1 on AMPK activity. More specifically, the C2C12 myoblasts were primarily cultured in DMEM supplemented with 10% fetal bovine serum, and then cultured in DMEM supplemented with 2% horse serum for 5 days to differentiate into myotubes. Then, the differentiated myotubes were treated with 10 µM DMC derivative and cultured for 24 hours, and then cells were collected, and disrupted using an ultrasonic disperser to obtain proteins. Next, western blotting was performed using a pAMPK antibody (Cell Signaling Technology) and an AMPK antibody (Cell Signaling Technology) to measure the amount of phosphorylated AMPK. 1 mM AICAR was used as a positive control, and 20 µg of protein was used for each sample in western blotting.

| Structure (SMILES) | binding of immune cells to vascular endothelial cells (fluorescence) [1] | amount of intracellular reactive oxygen species (ROS) [2] | migration of vascular smooth muscle cells [3] | activity of AMPK (phosphorylated AMPK) (AMPK) |
| --- | --- | --- | --- | --- |
| COc1c(C)c(O)c(C)c(O)c1C(=O)/C=C/c1ccc(F)cc1 [Chemical Formula 2, 1-(2′,4′-dihydroxy-6′-methoxy-3′,5′-dimethylphenyl)-3-(4-fluorophenyl)-2-propen-l-one] | similarly or more effectively suppressed the binding of immune cells than Rosi | effectively reduced ROS | similarly or more effectively suppressed cell migration by PDGF than AICAR and Rosi, which were used as positive controls, and DMC |  |
| COc1c(C)c(O)c(C)c(O)c1C(=O)/C=C/c1ccc(F)c(F)c1 [Chemical Formula 6, 1-(2′,4′-dihydroxy-6′-methoxy-3′,5′-dimethylphenyl)-3-(3,4-difluorophenyl)-2-propen-1-one] | similarly or more effectively suppressed the binding of immune cells than Rosi | effectively reduced ROS |  | increased the activity of AMPK similarly to or more effectively than the positive controls |
| COc1c(C)c(O)c(C)c(O)c1C(=O)/C=C/c1ccc(N(C)C)cc1 [Chemical Formula 7, 1-(2,4′-dihydroxy-6′-methoxy-3′,5′-dimethylphenyl)-3-(4-(N,N-dimethylamino)phenyl)-2-propen-1-one] | similarly or more effectively suppressed the binding of immune cells than Rosi | effectively reduced ROS |  |  |
| COc1c(C)c(O)c(C)c(O)c1C(=O)/C=C/c1ccc(Cl)cc1 [Chemical Formula 8, 1-(2′,4′-dihydroxy-6′-methoxy-3′,5′-dimethylphenyl)-3-(4-chlorophenyl)-2-propen-1-one] | similarly or more effectively suppressed the binding of immune cells than Rosi | effectively reduced ROS |  | increased the activity of AMPK similarly to or more effectively than the positive controls |
| COc1c(C)c(O)c(C)c(O)c1C(=O)/C=C/c1ccc(C(F)(F)F)cc1 [Chemical Formula 9, 1-(2′,4′-dihydroxy-6′-methoxy-3′,5′-dimethylphenyl)-3-(4-(trifluoromethyl)phenyl)-2-propen-1-one] | similarly or more effectively suppressed the binding of immune cells than Rosi | effectively reduced ROS |  | increased the activity of AMPK similarly to or more effectively than the positive controls |
| COc1ccc(OC)c(/C=C/C(=O)c2c(O)c(C)c(O)c(C)c2OC)c1 [Chemical Formula 10, 1-(2′,4′-dihydroxy-6′-methoxy-3′,5′-dimethylphenyl)-3-(2,5-dimethoxyphenyl)-2-propen-1-one] | similarly or more effectively suppressed the binding of immune cells than Rosi | effectively reduced ROS |  |  |
| COCOc1c(C)c(O)c(C(=O)/C=C/c2ccc(F)c(F)c2)c(OC)c1C [Chemical Formula 11, 1-(2′-hydroxy-4′-(methoxymethoxy)-6′-methoxy-3′,5′-dimethylphenyl)-3-(3,4-difluorophenyl)-2-propen-1-one] | similarly or more effectively suppressed the binding of immune cells than Rosi | effectively reduced ROS |  | increased the activity of AMPK similarly to or more effectively than the positive controls |
| COCOc1c(C)c(O)c(C(=O)/C=C/c2ccc(Cl)cc2)c(OC)c1C [Chemical Formula 12, 1-(2′-hydroxy-4′-(methoxymethoxy)-6′-methoxy-3′,5′-dimethyphenyl)-3-(4-chlorophenyl)-2-propen-1-one] | similarly or more effectively suppressed the binding of immune cells than Rosi | effectively reduced ROS |  | increased the activity of AMPK similarly to or more effectively than the positive controls |
| COCOc1c(C)c(O)c(C(=O)/C=C/c2ccc(SC)cc2)c(OC)c1C [Chemical Formula 13, 1-(2′-hydroxy-4′-(methoxymethoxy)-6′-methoxy-3′,5′-dimethyphenyl)-3-(4-methylthiophenyl)-2-propen-1-one] | similarly or more effectively suppressed the binding of immune cells than Rosi | effectively reduced ROS | similarly or more effectively suppressed cell migration by PDGF than AICAR and Rosi, which were used as positive controls, and DMC |  |
| COCOc1c(C)c(O)c(C(=O)/C=C/c2ccc(C(F)(F)F)cc2)c(OC)c1C [Chemical Formula 14, 1-(2′-hydroxy-4′-(methoxymethoxy)-6′-methoxy-3′,5′-dimethylphenyl)-3-(4-(trifluoromethyl)phenyl)-2-propen-1-one] | similarly or more effectively suppressed the binding of immune cells than Rosi | effectively reduced ROS |  |  |
| COCOc1ccc(/C=C/C(=O)c2c(OC)c(C)c(OC)c(C)c2OC)cc1 [Chemical Formula 20, 1-(3′,5′-dimethyl-2′,4′,6′-trimethoxyphenyl)-3-(4-methoxymethoxyphenyl)-2-propen-1-one] |  | effectively reduced ROS | similarly or more effectively suppressed cell migration by PDGF than AICAR and Rosi, which were used as positive controls, and DMC | increased the activity of AMPK similarly to or more effectively than the positive controls |
| COc1c(C)c(O)c(C)c(O)c1C(=O)/C=C/c1ccccc1F [Chemical Formula 31, 1-(2′,4′-dihydroxy-6′-methoxy-3′,5′-dimethylphenyl)-3-(2-fluorophenyl)-2-propen-1-one] |  | effectively reduced ROS | similarly or more effectively suppressed cell migration by PDGF than AICAR and Rosi, which were used as positive controls, and DMC | increased the activity of AMPK similarly to or more effectively than the positive controls |
| COCOc1c(C)c(O)c(C(=O)/C=C/c2cccc(F)c2)c(OC)c1C [Chemical Formula 35, 1-(2′-hydroxy-4′-(methoxymethoxy)-6′-methoxy-3′,5′-dimethylphenyl)-3-(3-fluorophenyl)-2-propen-1-one] | similarly or more effectively suppressed the binding of immune cells than Rosi | effectively reduced ROS |  |  |
| COCOc1c(C)c(O)c(C(=O)/C=C/c2ccccc2Cl)c(OC)c1C [Chemical Formula 38, 1-(2′-hydroxy-4′-(methoxymethoxy)-6′-methoxy-3′,5′-dimethylphenyl)-3-(2-chlorophenyl)-2-propen-1-one] | similarly or more effectively suppressed the binding of immune cells than Rosi |  | similarly or more effectively suppressed cell migration by PDGF than AICAR and Rosi, which were used as positive controls, and DMC |  |
| COc1c(C)c(O)c(C)c(O)c1C(=O)/C=C/c1ccc(C)cc1C [Chemical Formula 39, 1-(2′,4′-dihydroxy-6′-methoxy-3′,5′-dimethylphenyl)-3-(2,4-dimethylphenyl)-2-propen-1-one] | similarly or more effectively suppressed the binding of immune cells than Rosi |  | similarly or more effectively suppressed cell migration by PDGF than AICAR and Rosi, which were used as positive controls, and DMC | increased the activity of AMPK similarly to or more effectively than the positive controls |
